Values of other authors as cited in patent US20230285429A1, “CANNABINOID ACID FORMULATIONS, DELIVERY SYSTEMS, AND METHODS OF USE” (Flora Growth U.S. Holdings Corp., priority 2022, published 2023).

Test system: pseudovirus expressing the spike protein
Conditions: human epithelial cell lines, CBGA or CBDA individually

SMILES	infection by pseudovirus expressing the spike protein
C=C(C)[C@@H]1CCC(C)=C[C@H]1c1c(O)cc(CCCCC)c(C(=O)O)c1O [CBDA, cannabidiolic acid]	reduce infection
CCCCCc1cc(O)c(C/C=C(\C)CCC=C(C)C)c(O)c1C(=O)O [CBGA, cannabigerolic acid]	reduce infection
